Here are results for 1 compound from patent US20080275028A1 (priority 2004, published 2008).

In general, EC50 refers to the concentration giving half of the maximal effect.

The assay addresses T1, alpha7 nicotinic acetylcholine receptor (Rattus norvegicus, UniProt Q05941).
T1 construct: expressed in transfected cells
Kind of assay: Functional FLIPR assay (calcium), alpha7 nAChR stably expressed in GH4C1 cells. The format is cell-based. As to conditions: agonist, concentration range 0.001 to 30 microM.

T1 sequence (Q05941 23-502): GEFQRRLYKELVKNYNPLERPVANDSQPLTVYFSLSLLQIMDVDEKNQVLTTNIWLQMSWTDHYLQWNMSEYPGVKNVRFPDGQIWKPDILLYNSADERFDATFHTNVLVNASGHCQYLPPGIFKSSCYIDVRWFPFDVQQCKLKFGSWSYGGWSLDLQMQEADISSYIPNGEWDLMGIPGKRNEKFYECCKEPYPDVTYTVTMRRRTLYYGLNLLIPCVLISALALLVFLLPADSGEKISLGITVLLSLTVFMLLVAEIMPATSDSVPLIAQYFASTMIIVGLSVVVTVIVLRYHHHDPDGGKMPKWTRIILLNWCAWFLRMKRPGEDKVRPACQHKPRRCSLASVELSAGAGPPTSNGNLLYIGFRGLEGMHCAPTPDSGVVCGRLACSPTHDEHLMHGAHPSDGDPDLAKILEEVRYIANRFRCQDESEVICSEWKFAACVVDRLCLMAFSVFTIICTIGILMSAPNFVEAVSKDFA
Excerpt: Rat GH4C1 cells were then transfected with the rat receptor, cloned and analyzed for functional alpha7 nicotinic receptor expression employing a FLIPR assay to measure changes in intracellular calcium concentrations.
The FLIPR system allows the measurements of real time Ca^2+-concentration changes in living cells using a Ca^2+ sensitive fluorescence dye (such as Fluo4). This instrument enables the screening for agonists and antagonists for alpha 7 nAChR channels stably expressed in GH4C1cells.
GH4C1 cells stably transfected with rat-alpha7-nAChR (see above) were used. These cells are poorly adherent and therefore pretreatment of flasks and plates with poly-D-lysine was carried out. Cells are grown in 150 cm^2 T-flasks, filled with 30 ml of medium at 37° C. and 5% CO2.
EC50 and IC50 values were calculated using the IDBS XLfit4.1 software package employing a sigmoidal concentration-response (variable slope) equation:
Y=Bottom+((Top-Bottom)/(1+((EC50/X) ̂ HillSlope))
The compounds were tested using the functional FLIPR primary screening assay employing the stable recombinant GH4C1 cell line expressing the alpha7 nAChR. Hits identified were validated further by generation of concentration-response curves.

For `C[N+]1(C)CCN(c2ccccc2)CC1` [DMPP], the EC50 was 980 ± 470 nM.
